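Step 1: Grow cells in 96-well plates. Step 2: Expose to compound for 48 hours at 5 concentrations. Step 3: Interpolate endpoints linearly; if unreached, use highest concentration. TGI: total growth inhibition.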
Tests used:
Experiment in all cases: inhibition of tumour cell growth, NCI panel, 48 h
[1] = system: NCI-H522 lung
[2] = system: SF-539 CNS
[3] = system: KM12 colon
[4] = system: UACC-62 melanoma
[5] = system: NCI-H460 lung
[6] = system: SN12C renal
[7] = system: HCT-116 colon
[8] = system: TK-10 renal
[9] = system: MDA-MB-231 breast
[10] = system: UACC-257 melanoma
[11] = system: NCI/ADR-RES ovarian
[12] = system: SK-OV-3 ovarian
[13] = system: OVCAR-4 ovarian
[14] = system: A498 renal
[15] = system: HCT-15 colon
[16] = system: HCC-2998 colon
[17] = system: CCRF-CEM leukemia
[18] = system: MALME-3M melanoma
[19] = system: SK-MEL-2 melanoma
[20] = system: RPMI-8226 leukemia
[21] = system: OVCAR-3 ovarian
[22] = system: SK-MEL-28 melanoma
[23] = system: MDA-N
[24] = system: OVCAR-5 ovarian
[25] = system: HT29 colon
[26] = system: HS 578T breast
[27] = system: SF-268 CNS
[28] = system: SR leukemia
[29] = system: PC-3 prostate
[30] = system: HOP-62 NSCLC
[31] = system: HOP-92 NSCLC
[32] = system: M14 melanoma
[33] = system: K-562 leukemia
[34] = system: OVCAR-8 ovarian
[35] = system: UO-31 renal
[36] = system: NCI-H226 lung
[37] = system: EKVX NSCLC
[38] = system: A549 NSCLC
[39] = system: IGROV1 ovarian
[40] = system: MOLT-4 leukemia
[41] = system: 786-0 renal
[42] = system: SF-295 CNS
[43] = system: ACHN renal
[44] = system: COLO 205 colon
[45] = system: SW-620 colon
[46] = system: CAKI-1 renal
[47] = system: DU-145 prostate
[48] = system: NCI-H23 lung
[49] = system: BT-549 breast
[50] = system: SNB-75 CNS
[51] = system: MCF7 breast
[52] = system: SNB-19 CNS
[53] = system: RXF 393 renal
[54] = system: SK-MEL-5 melanoma
[55] = system: MDA-MB-435
[56] = system: U251 CNS
[57] = system: LOX IMVI melanoma
[58] = system: T-47D breast
[59] = system: HL-60(TB) leukemia

SMILES: CCCc1[nH]c2ccccc2c1-c1c(CCC)[nH]c2ccccc12
- TGI [1]: 34.2 µM
- TGI [2]: 36.1 µM
- TGI [3]: > 61.2 µM
- TGI [4]: 34.8 µM
- TGI [5]: 59.7 µM
- TGI [6]: 23.2 µM
- TGI [7]: 15.2 µM
- TGI [8]: 50.9 µM
- TGI [9]: 38.6 µM
- TGI [10]: 43.9 µM
- TGI [11]: 51.8 µM
- TGI [12]: 65.5 µM
- TGI [13]: > 68.2 µM
- TGI [14]: > 100 µM
- TGI [15]: 23.5 µM
- TGI [16]: 42.1 µM
- TGI [17]: > 100 µM
- TGI [18]: 32.7 µM
- TGI [19]: 35.7 µM
- TGI [20]: > 100 µM
- TGI [21]: 21.4 µM
- TGI [22]: 21.6 µM
- TGI [23]: 24.4 µM
- TGI [24]: 33.6 µM
- TGI [25]: 22.2 µM
- TGI [26]: 50.5 µM
- TGI [27]: 28.3 µM
- TGI [28]: > 100 µM
- TGI [29]: 23.4 µM
- TGI [30]: 32.2 µM
- TGI [31]: 62.4 µM
- TGI [32]: 27.9 µM
- TGI [33]: > 100 µM
- TGI [34]: 11.2 µM
- TGI [35]: 34.7 µM
- TGI [36]: 39.1 µM
- TGI [37]: 30.9 µM
- TGI [38]: > 75.4 µM
- TGI [39]: 32.4 µM
- TGI [40]: > 100 µM
- TGI [41]: 31.4 µM
- TGI [42]: 32.8 µM
- TGI [43]: 31.7 µM
- TGI [44]: 37.1 µM
- TGI [45]: 23.7 µM
- TGI [46]: 38.5 µM
- TGI [47]: 35 µM
- TGI [48]: 26.8 µM
- TGI [49]: 35.6 µM
- TGI [50]: 39.7 µM
- TGI [51]: 29.9 µM
- TGI [52]: 29.3 µM
- TGI [53]: 37.6 µM
- TGI [54]: 23.7 µM
- TGI [55]: > 63.7 µM
- TGI [56]: 21.9 µM
- TGI [57]: 17.3 µM

SMILES: N#C/C(C(=S)NCc1ccccc1)=C(/N)N1CCCC1
- TGI [1]: > 100 µM
- TGI [58]: > 100 µM
- TGI [2]: > 100 µM
- TGI [3]: > 100 µM
- TGI [59]: > 100 µM
- TGI [4]: > 100 µM
- TGI [5]: > 100 µM
- TGI [6]: > 100 µM
- TGI [7]: > 100 µM
- TGI [8]: > 100 µM
- TGI [9]: > 100 µM
- TGI [10]: > 100 µM
- TGI [11]: > 100 µM
- TGI [12]: > 100 µM
- TGI [13]: > 100 µM
- TGI [14]: > 100 µM
- TGI [15]: > 100 µM
- TGI [16]: > 100 µM
- TGI [17]: > 100 µM
- TGI [18]: > 100 µM
- TGI [19]: > 100 µM
- TGI [20]: > 100 µM
- TGI [21]: > 100 µM
- TGI [22]: > 100 µM
- TGI [23]: > 100 µM
- TGI [24]: > 100 µM
- TGI [25]: > 100 µM
- TGI [26]: > 100 µM
- TGI [27]: > 100 µM
- TGI [28]: > 100 µM
- TGI [29]: > 100 µM
- TGI [30]: > 100 µM
- TGI [31]: > 100 µM
- TGI [32]: > 100 µM
- TGI [33]: > 100 µM
- TGI [34]: > 100 µM
- TGI [35]: > 100 µM
- TGI [36]: > 100 µM
- TGI [37]: > 100 µM
- TGI [38]: > 100 µM
- TGI [39]: > 100 µM
- TGI [40]: > 100 µM
- TGI [41]: > 100 µM
- TGI [42]: > 100 µM
- TGI [43]: > 100 µM
- TGI [44]: > 100 µM
- TGI [45]: > 100 µM
- TGI [46]: > 100 µM
- TGI [47]: > 100 µM
- TGI [48]: > 100 µM
- TGI [52]: > 100 µM
- TGI [53]: > 100 µM
- TGI [54]: > 100 µM
- TGI [55]: > 100 µM
- TGI [56]: > 100 µM
- TGI [57]: > 100 µM

SMILES: CC[C@@]1(O)C(=O)OCc2c1cc1n(c2=O)Cc2c-1nc1ccccc1c2/C=N\NC(=O)C(N)CCSC (stereo partly drawn)
- TGI [1]: 2.02 µM
- TGI [59]: 2.66 µM
- TGI [4]: < 0.043 µM
- TGI [5]: 0.624 µM
- TGI [6]: 0.925 µM
- TGI [7]: 1.58 µM
- TGI [8]: > 100 µM
- TGI [9]: > 100 µM
- TGI [10]: 2.45 µM
- TGI [11]: 23.9 µM
- TGI [12]: 7.73 µM
- TGI [13]: 3.24 µM
- TGI [14]: 0.359 µM
- TGI [15]: > 90.3 µM
- TGI [16]: 5.26 µM
- TGI [17]: > 100 µM
- TGI [18]: 14.5 µM
- TGI [19]: 4.2 µM
- TGI [20]: 4.03 µM
- TGI [21]: 3.08 µM
- TGI [22]: > 100 µM
- TGI [23]: > 100 µM
- TGI [24]: > 23.7 µM
- TGI [26]: > 100 µM
- TGI [27]: 1.55 µM
- TGI [28]: < 0.0397 µM
- TGI [29]: > 100 µM
- TGI [31]: 2.98 µM
- TGI [32]: 0.473 µM
- TGI [33]: > 100 µM
- TGI [34]: 4.36 µM
- TGI [35]: 0.277 µM
- TGI [36]: 1.11 µM
- TGI [37]: > 100 µM
- TGI [38]: 3.19 µM
- TGI [39]: 5.63 µM
- TGI [41]: 1.92 µM
- TGI [42]: 0.315 µM
- TGI [43]: < 0.0506 µM
- TGI [44]: 18.5 µM
- TGI [45]: > 41.1 µM
- TGI [47]: > 100 µM
- TGI [48]: 0.0526 µM
- TGI [50]: 1.44 µM
- TGI [51]: 1.84 µM
- TGI [52]: 0.722 µM
- TGI [54]: 0.191 µM
- TGI [55]: 3.58 µM
- TGI [56]: 1.17 µM
- TGI [57]: 0.0368 µM
